Data on 20 compounds can be found in patent US20240109898A1, “SUBSTITUTED PYRAZOLO[1,5-A]PYRIMIDINE-7-AMINE DERIVATIVES, COMPOSITIONS AND PHARMACEUTICAL USES THEREOF” (SHANGHAI HAIYAN PHARMACEUTICAL TECHNOLOGY CO., LTD., priority 2021, published 2024).

By IC50 is commonly meant the concentration at which inhibition is half-maximal.

CDK9/CycT, sequence (P50750 whole entry): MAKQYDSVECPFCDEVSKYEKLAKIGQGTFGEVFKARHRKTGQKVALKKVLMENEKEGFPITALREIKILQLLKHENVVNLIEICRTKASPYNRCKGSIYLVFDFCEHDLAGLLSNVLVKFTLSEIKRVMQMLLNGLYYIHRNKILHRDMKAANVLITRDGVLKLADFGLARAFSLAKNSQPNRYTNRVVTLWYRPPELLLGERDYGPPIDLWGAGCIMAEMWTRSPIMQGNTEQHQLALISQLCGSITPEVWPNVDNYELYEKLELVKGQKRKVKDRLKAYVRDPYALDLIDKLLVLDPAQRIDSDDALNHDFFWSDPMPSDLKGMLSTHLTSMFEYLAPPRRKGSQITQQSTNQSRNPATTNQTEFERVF
CDK9/CycT, sequence (O60563 whole entry partner): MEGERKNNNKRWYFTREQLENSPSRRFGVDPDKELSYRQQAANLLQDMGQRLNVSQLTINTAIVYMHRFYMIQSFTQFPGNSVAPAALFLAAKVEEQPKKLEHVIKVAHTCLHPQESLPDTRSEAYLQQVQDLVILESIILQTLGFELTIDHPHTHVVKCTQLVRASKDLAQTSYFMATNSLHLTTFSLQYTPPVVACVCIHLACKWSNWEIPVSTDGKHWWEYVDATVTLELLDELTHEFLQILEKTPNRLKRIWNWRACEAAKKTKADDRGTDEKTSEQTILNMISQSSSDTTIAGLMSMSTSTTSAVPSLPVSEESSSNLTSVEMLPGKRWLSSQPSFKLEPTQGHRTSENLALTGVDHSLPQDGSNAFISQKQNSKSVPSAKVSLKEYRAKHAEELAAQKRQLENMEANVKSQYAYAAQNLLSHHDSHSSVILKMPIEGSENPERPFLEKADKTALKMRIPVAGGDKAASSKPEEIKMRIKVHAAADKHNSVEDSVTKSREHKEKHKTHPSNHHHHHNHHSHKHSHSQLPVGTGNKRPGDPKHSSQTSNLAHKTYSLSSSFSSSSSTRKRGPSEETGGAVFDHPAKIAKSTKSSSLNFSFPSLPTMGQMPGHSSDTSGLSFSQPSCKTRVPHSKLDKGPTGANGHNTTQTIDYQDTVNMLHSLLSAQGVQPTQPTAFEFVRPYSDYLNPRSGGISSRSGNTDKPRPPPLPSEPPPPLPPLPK

The target in one assay is CDK2/CycA (Homo sapiens (Human), UniProt P24941). Put plainly: LANCE Ultra kinase activity inhibition assay, CDK2/CycA. Type of assay: biochemical. Conditions: ATP 10 μM, highest compound concentration 10 μM. An excerpt:
(§1) In the following LANCE Ultra test methods, kinase reagents were purchased from Carna Bioscience, reaction substrates and detection reagents were purchased from PerkinElmer, and the remaining reagents were purchased from Thermo scientific.
(§2) The assay for each kinase includes three test groups, i.e., a background group (Blank), a non-inhibition group (PC), and compound testing group (Test). The components included in each test group were as follows:
(§3) Working concentrations of the respective components of the Test groups in different kinase reactions were as follows.
(§4) Compounds: 10 mM of the compound to be tested was dissolved at room temperature and diluted with DMSO to gradient concentrations, followed by diluting with deionized water to prepare a 4× working solution of the compound, and the content of DMSO was 2%. The highest concentration of compound used in the CDK1 and CDK2 assays was 10 μM, and that in CDK9 assay was 1 μM.
(§5) The working concentration of DMSO in the reaction was 0.5%.
(§6) The above-mentioned components, after being mixed, were placed on a shaker and incubated at room temperature in the dark for 1 h. 10 μL of test solution was then added to all test groups (including Blank, PC and Test groups).
(§7) After the test solution was added, the solution was placed on a shaker and continually incubated at room temperature for 1 h in the dark. […] The inhibition rate was calculated as below.
(§8) 2. Inhibition rate=(PCRatio-TestRatio)/(PCRatio-BlankRatio)*100%; and
(§9) 3. XLFIT 5.0 software (IDBS, UK) was used to fit a graph by using the logarithmic value of the compound concentration as the X-axis and the inhibition rater as the Y-axis, and a four-parameter model was used to calculate the half inhibitory concentration IC50 of the compound.
Regarding `CC(=O)N[C@H]1CC[C@H](Nc2cc(C(C)C3CC3)nc3c(Cl)cnn23)C1` (stereo partly drawn) [Compound Z-63], the IC50 is 0.278 µM.
The compound `CCc1cnn2c(N[C@H]3CC[C@H](N)C3)cc(C(C3CC3)C3CC3)nc12` [Compound Z-16] registered an IC50 of 1.27 µM.
As to `Cc1cnn2c(N[C@H]3CC[C@H](N)C3)cc(C(C)C3CC3)nc12` (stereo partly drawn) [Compound Z-32], half-maximal inhibition (IC50) required 0.967 µM.
For `CCC(c1cc(N[C@H]2CC[C@H](N)C2)n2nccc2n1)C1CC1` (stereo partly drawn) [Compound Z-28], 3.07 µM corresponded to half-maximal inhibition (IC50).
Same read-out and setting: with `CCC(c1cc(N[C@H]2CC[C@H](N)C2)n2ncc(C)c2n1)C1CC1` (stereo partly drawn) [Compound Z-30] the figure was 1.55 µM.
`CC(c1cc(N[C@H]2CC[C@H](N)C2)n2nccc2n1)C1(C)CC1` (stereo partly drawn) [Compound Z-27]: half-maximal inhibition (IC50) required 2.82 µM.
For the compound `N[C@H]1CC[C@H](Nc2cc(C(F)C3CCC3)nc3ccnn23)C1` (stereo partly drawn) [Compound Z-70], the IC50 was 3.88 µM.
Compound `Cc1cnn2c(N[C@H]3CC[C@H](N)C3)cc(CC3(C)CC3)nc12` [Compound Z-25] returned an IC50 of 8.71 µM.
Consider `C=Cc1cnn2c(N[C@H]3CC[C@H](N)C3)cc(C(C)C3CC3)nc12` (stereo partly drawn) [Compound Z-60], for which the midpoint of inhibition, the IC50, lay at 3.2 µM.
In turn, `N[C@H]1CC[C@H](Nc2cc(C(C3CC3)C3CC3)nc3c(C(F)(F)F)cnn23)C1` [Compound Z-33] had a 50% inhibitory concentration (IC50) of 0.355 µM.
`CCC(c1cc(N[C@H]2CC[C@H](N)C2)n2nccc2n1)C1CCC1` (stereo partly drawn) [Compound Z-43]: the IC50 is more than 10 µM.
Still for that read-out and setting: as for `N#Cc1cnn2c(N[C@H]3CC[C@H](N)C3)cc(C(C3CC3)C3CC3)nc12` [Compound Z-4], the figure is 0.828 µM; as for `NN1CCC(Nc2cc(C(C3CC3)C3CC3)nc3ccnn23)C1` (stereo not drawn) [Compound Z-59], more than 10 µM.

A further assay deals with CDK1/CycB (Homo sapiens (Human), UniProt P06493). The assay is described as follows: LANCE Ultra kinase activity inhibition assay, CDK1/CycB. Type of assay: biochemical. To be noted: ATP 4 μM, highest compound concentration 10 μM.
CDK1/CycB, sequence (P06493 whole entry): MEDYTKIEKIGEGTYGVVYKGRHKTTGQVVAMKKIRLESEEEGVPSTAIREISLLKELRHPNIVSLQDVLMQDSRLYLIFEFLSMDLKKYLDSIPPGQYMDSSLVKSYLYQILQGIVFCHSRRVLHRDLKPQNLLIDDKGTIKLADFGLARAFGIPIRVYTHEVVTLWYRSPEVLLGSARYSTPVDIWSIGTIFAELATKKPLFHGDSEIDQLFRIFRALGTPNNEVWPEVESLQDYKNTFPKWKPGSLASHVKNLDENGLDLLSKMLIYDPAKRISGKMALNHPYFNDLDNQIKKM
CDK1/CycB, sequence (P14635 whole entry partner): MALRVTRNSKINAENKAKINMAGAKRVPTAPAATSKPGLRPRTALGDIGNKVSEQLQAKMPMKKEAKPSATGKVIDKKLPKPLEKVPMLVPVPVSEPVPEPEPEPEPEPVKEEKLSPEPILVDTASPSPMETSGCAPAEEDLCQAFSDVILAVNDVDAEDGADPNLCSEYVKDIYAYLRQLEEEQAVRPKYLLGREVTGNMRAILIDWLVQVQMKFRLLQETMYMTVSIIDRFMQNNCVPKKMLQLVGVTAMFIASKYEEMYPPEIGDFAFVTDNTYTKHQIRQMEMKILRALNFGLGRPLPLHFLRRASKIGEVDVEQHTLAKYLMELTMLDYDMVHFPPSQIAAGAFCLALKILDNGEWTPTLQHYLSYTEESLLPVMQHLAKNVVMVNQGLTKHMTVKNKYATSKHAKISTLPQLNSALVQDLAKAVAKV
Source text: as §1, §2, §3, §4, §5, §6, §7, §8, §9
For `CC(=O)N[C@H]1CC[C@H](Nc2cc(C(C)C3CC3)nc3c(Cl)cnn23)C1` (stereo partly drawn) [Compound Z-63], half-maximal inhibition (IC50) was put at 0.84 µM.
Still for that read-out and setting: with `CCc1cnn2c(N[C@H]3CC[C@H](N)C3)cc(C(C3CC3)C3CC3)nc12` [Compound Z-16] the figure was 1.27 µM; with `Cc1cnn2c(N[C@H]3CC[C@H](N)C3)cc(C(C)C3CC3)nc12` (stereo partly drawn) [Compound Z-32], 0.996 µM.
`CCC(c1cc(N[C@H]2CC[C@H](N)C2)n2nccc2n1)C1CC1` (stereo partly drawn) [Compound Z-28] displayed an IC50 of 1.86 µM. Compared with the last compound, the IC50 is about 1.9-fold higher.
`CCC(c1cc(N[C@H]2CC[C@H](N)C2)n2ncc(C)c2n1)C1CC1` (stereo partly drawn) [Compound Z-30] registered an IC50 of 1.36 µM.
`CC(c1cc(N[C@H]2CC[C@H](N)C2)n2nccc2n1)C1(C)CC1` (stereo partly drawn) [Compound Z-27] came in with an IC50 of 0.772 µM.
The same measure, in the same setting: as for `N[C@H]1CC[C@H](Nc2cc(C(F)C3CCC3)nc3ccnn23)C1` (stereo partly drawn) [Compound Z-70], the figure is 2.26 µM; as for `Cc1cnn2c(N[C@H]3CC[C@H](N)C3)cc(CC3(C)CC3)nc12` [Compound Z-25], 9.87 µM.
With `C=Cc1cnn2c(N[C@H]3CC[C@H](N)C3)cc(C(C)C3CC3)nc12` (stereo partly drawn) [Compound Z-60], the midpoint of inhibition, the IC50, lay at 2.49 µM.
Still for that read-out and setting: with `N[C@H]1CC[C@H](Nc2cc(C(C3CC3)C3CC3)nc3c(C(F)(F)F)cnn23)C1` [Compound Z-33] the figure was 0.347 µM.
Compound `CCC(c1cc(N[C@H]2CC[C@H](N)C2)n2nccc2n1)C1CCC1` (stereo partly drawn) [Compound Z-43] came in with an IC50 of 7.1 µM. Against the preceding compound, the IC50 is about 20-fold higher.
With `N#Cc1cnn2c(N[C@H]3CC[C@H](N)C3)cc(C(C3CC3)C3CC3)nc12` [Compound Z-4], the IC50 came out at 0.716 µM.
`NN1CCC(Nc2cc(C(C3CC3)C3CC3)nc3ccnn23)C1` (stereo not drawn) [Compound Z-59] displayed an IC50 of 8.82 µM. Against the preceding compound, the IC50 is about 12-fold higher.

The target in another assay is CDK9/CycT (Homo sapiens (Human), UniProt P50750). Put plainly: LANCE Ultra kinase activity inhibition assay, CDK9/CycT. The class given is biochemical. To be noted: ATP 10 μM, highest compound concentration 1 μM. Here is the method:
as §1
The inhibiting effects on the kinase activity of CDK1/CycB (Carna bioscience, #04-102), CDK2/CycA (Carna bioscience, #04-103) and CDK9/CycT (Carna bioscience, #04-110) were determined by using LANCE Ultra method.
The kinase activity test was performed using a system (10 μL) containing the following components: substrate diluent prepared by mixing CDK kinase diluent, Ulight-Myelic basic protein (Perkin Elmer, #TRF-0109, hereinafter referred to as U-MBP) and ATP (Thermo scientific, #PV3227); and the compounds (i.e., analyte) prepared in the examples of the present disclosure. The assay for each kinase includes three test groups, i.e., a background group (Blank), a non-inhibition group (PC), and compound testing group (Test). The components included in each test group were as follows:
as §3, §4
1.33×reaction buffer: the components include 26.7 mM of MOPS, 6.67 mM of MgCl2, and 0.0133% Tween-20, which were stored in a 4° C. refrigerator and protected from light after preparation. Freshly prepared DTT was added to a final concentration of 5.33 mM before use.
as §5, §6
10 μL of test solution contains the following components: 16 mM of EDTA (Thermo scientific, #15575), 1 nM of phosphorylated U-MBP protein antibody (Perkin Elmer, #TRF-0201), and 1× detection damping fluid (Perkin Elmer, #CR97-100).
After the test solution was added, the solution was placed on a shaker and continually incubated at room temperature for 1 h in the dark. At the end of incubation, Victor X5 fluorescence microplate reader of Perkin Elmer was used to read the signal; the wavelength of excitation light was 320 nm, and the wavelengths of emission light were 615 nm and 665 nm. The inhibition rate was calculated as below.
1. For all groups, a value of 665 nm/615 nm (hereinafter referred to as Ratio) was calculated, and an inhibition rate was calculated based on the Ratio of each group;
as §8, §9
On the technique in general: Time-resolved FRET reads energy transfer from a long-lived donor to a nearby acceptor.
On to `C[C@@H](c1cc(N[C@H]2CC[C@H](N)C2)n2nccc2n1)C1CCC1` [Compound Z-11-P2], for which the midpoint of inhibition, the IC50, lay at 0.03 µM.
On to `CC(=O)N[C@H]1CC[C@H](Nc2cc(C(C)C3CC3)nc3c(Cl)cnn23)C1` (stereo partly drawn) [Compound Z-63], for which the IC50 is 0.014 µM.
Consider `CCc1cnn2c(N[C@H]3CC[C@H](N)C3)cc(C(C3CC3)C3CC3)nc12` [Compound Z-16], for which half-maximal inhibition (IC50) required 0.022 µM.
Compound `Cc1cnn2c(N[C@H]3CC[C@H](N)C3)cc(C(C)C3CC3)nc12` (stereo partly drawn) [Compound Z-32] had an IC50 of 0.009 µM.
In turn, `CCC(c1cc(N[C@H]2CC[C@H](N)C2)n2nccc2n1)C1CC1` (stereo partly drawn) [Compound Z-28] registered an IC50 of 0.011 µM.
As to `CCC(c1cc(N[C@H]2CC[C@H](N)C2)n2ncc(C)c2n1)C1CC1` (stereo partly drawn) [Compound Z-30], it took 0.01 µM to reach half-maximal inhibition (IC50).
`Cc1cnn2c(N[C@H]3CC[C@H](N)C3)cc(C(C)C3CCC3)nc12` (stereo partly drawn) [Compound Z-38] had an IC50 of 0.017 µM.
`C[C@@H](c1cc(N[C@H]2CC[C@H](N)C2)n2nccc2n1)C1CC1` [Compound Z-5-1] displayed an IC50 of 0.023 µM.
Still for that read-out and setting: as for `CC(c1cc(N[C@H]2CC[C@H](N)C2)n2nccc2n1)C1(C)CC1` (stereo partly drawn) [Compound Z-27], the figure is 0.009 µM; as for `N[C@H]1CC[C@H](Nc2cc(C(F)C3CCC3)nc3ccnn23)C1` (stereo partly drawn) [Compound Z-70], 0.023 µM; as for `Cc1cnn2c(N[C@H]3CC[C@H](N)C3)cc(CC3(C)CC3)nc12` [Compound Z-25], 0.021 µM.
For the compound `C=Cc1cnn2c(N[C@H]3CC[C@H](N)C3)cc(C(C)C3CC3)nc12` (stereo partly drawn) [Compound Z-60], the IC50 came to 0.024 µM. The IC50 values of the last two compounds are within 1.5-fold of each other.
In the case of `Cc1cnn2c(N[C@H]3CC[C@H](N)C3)cc([C@H](C)C3CCC3)nc12` (single isomer, unassigned) [Compound Z-38-P1], it took 0.04 µM to reach half-maximal inhibition (IC50). Compared with the last compound, the IC50 is about 1.7-fold higher.
Still for that read-out and setting: as for `N[C@H]1CC[C@H](Nc2cc(C(C3CC3)C3CC3)nc3c(C(F)(F)F)cnn23)C1` [Compound Z-33], the figure is 0.006 µM; as for `CCC(c1cc(N[C@H]2CC[C@H](N)C2)n2nccc2n1)C1CCC1` (stereo partly drawn) [Compound Z-43], 0.056 µM.
In turn, `N#Cc1cnn2c(N[C@H]3CC[C@H](N)C3)cc(C(C3CC3)C3CC3)nc12` [Compound Z-4] showed an IC50 of 0.014 µM. Against the preceding compound, the IC50 is about 4-fold lower.
`Cc1cnn2c(N[C@H]3CC[C@H](N)C3)cc([C@H](C)C3CCC3)nc12` (single isomer, unassigned) [Compound Z-38-P2] gave an IC50 of 0.016 µM. This IC50 and that of the compound before are within 1.5-fold of each other.
On the same count and under the same terms, as for `CC(c1cc(N[C@H]2CC[C@H](N)C2)n2nccc2n1)C1CCC1` (stereo partly drawn) [Compound Z-11], the figure is 0.022 µM; as for `CC(c1cc(N[C@H]2CC[C@H](N)C2)n2nccc2n1)C1CC1` (stereo partly drawn) [Compound Z-5], 0.017 µM.
